In assay [1] the test system is bone marrow cells isolated from adult C57BL/6 mice. Description: Small molecule screen for colony formation of mouse bone marrow cells in serum-free N2B27. It counts as cell-based. As to conditions: 96-well plates, serum-free N2B27, single small molecule, 7 days in culture. The source says: (§1) (A) Schematic of the experimental design to identify growth factors and small molecules that can promote expansion of mouse bone marrow-derived stem cells. (B) Representative phase-contrast images of mouse bone marrow cells cultured in N2B27 supplemented with the indicated small molecule inhibitors for 7 days. (C) Representative phase-contrast images of mouse bone marrow cells cultured in N2B27 supplemented with SCF plus GDC0879 or SB590885 for 3 passages. (D) Cell growth curves. Bone marrow cells isolated from C57BL/6J mice were plated into 24-well plates at a density of 2×10^5 cells/well and cultured in B7 medium supplemented with the indicated small molecules/growth factor. Cells were counted and passaged every 3 days. Data are represented as mean±SD from three independent experiments. (E) Bone marrow cells isolated from C57BL/6J mice were cultured in B7 medium supplemented with SCF/2i. Cells were passaged every 3 days. Representative phase-contrast pictures showing SCF/2i cells at different passages. (F) Cytogenetic analysis of SCF/2i cells using the GWT banding method. Bone marrow cells isolated from a female C57BL/6J mouse were expanded in SCF/2i for 8 passages before used for cytogenetic analysis. […] (G) Sequential images of individual bone marrow cells during expansion in B7 medium supplemented with SCF/2i. SCF/2i-expanded bone marrow cells were plated into 96-well plates at a density of 50 cells/well and cultured in SCF/2i. Sequential images were taken using the Keyence BZ-X710 microscopy every 24 hours. 15.7±4.0 colonies formed per well on day 4 (n=3×96). Data are represented as mean±SD from three independent experiments.
Based on this finding, it was postulated that many, if not all, types of stem cells can be maintained during long-term in vitro culture by inhibiting signaling pathways responsible for initiating differentiation. […]

The subject of another assay is mouse GMPs. Description: Ex vivo expansion of mouse bone marrow-derived cells / mouse GMPs. As to conditions: for ability to mimic the effect of SKL2001 for the expansion of mouse GMPs: in place of SKL2001; for effect on expansion of mouse GMPs in SCF/2i: Wnt/β-catenin signaling inhibitor added to SCF/2i. It counts as cell-based.
Description: as §1
Mouse GMP derivation, expansion, and differentiation. Cells were cultured at 37° C. in a 5% CO2 water jacket incubator (Thermo Scientific). Bone marrow cells isolated from C57BL/6J, mTmG or CAG-Cas9-EGFP mice were plated into 6-well plates at a density of 2×10^6 cells/well and cultured in 2 mL B7 medium supplemented with 50 ng/mL SCF, 1 μM GDC-0879, and 10 μM SKL2001 (SCF/2i). After 3-4 days, cells were dissociated into single-cell suspension by pipetting up and down and replated into 6-well plates at a density of 2×10^6 cells/well and cultured in 2 mL B7 medium supplemented with SCF/2i. After 2 passages in SCF/2i, the majority of cells were GMPs. GMPs were routinely passaged every 3 days. To induce differentiation, GMPs were plated into 10 cm tissue culture dishes and cultured in RPMI-1640 medium containing 10% FBS and supplemented with either 20 ng/mL M-CSF (for macrophage differentiation) or 20 ng/mL G-CSF (for granulocyte differentiation). GMP-derived macrophages were harvested on day 7 (medium was changed once on day 4) and GMP-derived granulocytes were harvested on day 3 and used for the further experiments.
Development of defined conditions for the long-term ex vivo expansion of hematopoietic stem/progenitor cells. To develop conditions for the long-term expansion of stem or progenitor cells of the hematopoietic system, screening was conducted to identify small molecules and growth factors/cytokines that can promote their ex vivo expansion (see FIG. 3A). Specifically, bone marrow cells isolated from adult C57BL/6 mice were plated into 96-well plates in serum-free N2B27 medium. Then a first-round small molecule screening was performed. It was reasoned that if a small molecule can block differentiation or promote expansion of stem cells, these stem cells should form colonies with a uniform cell morphology. […] Upon passaging, however, no new colonies were formed in culture with any of the 5 small molecule inhibitors. A second-round screening was conducted to identify growth factors/cytokines that could further improve the expansion of the colonies.
More importantly, these cells could be expanded robustly at clonal density (see FIG. 3G).
SCF/2i-expanded cells are GMPs. […]

In another assay the target is T1, myeloperoxidase (MPO) (Mus musculus, UniProt P11247).
T1 construct: The supernatants were harvested and MPO activities were measured using the neutrophil MPO activity assay kit; endogenous in cells; host or cells: mouse SCF/2i GMPs, SCF/2i GMP-derived granulocytes and mouse blood neutrophils; MPO measured in culture supernatant after PMA stimulation
T1 sequence (P11247 139-718): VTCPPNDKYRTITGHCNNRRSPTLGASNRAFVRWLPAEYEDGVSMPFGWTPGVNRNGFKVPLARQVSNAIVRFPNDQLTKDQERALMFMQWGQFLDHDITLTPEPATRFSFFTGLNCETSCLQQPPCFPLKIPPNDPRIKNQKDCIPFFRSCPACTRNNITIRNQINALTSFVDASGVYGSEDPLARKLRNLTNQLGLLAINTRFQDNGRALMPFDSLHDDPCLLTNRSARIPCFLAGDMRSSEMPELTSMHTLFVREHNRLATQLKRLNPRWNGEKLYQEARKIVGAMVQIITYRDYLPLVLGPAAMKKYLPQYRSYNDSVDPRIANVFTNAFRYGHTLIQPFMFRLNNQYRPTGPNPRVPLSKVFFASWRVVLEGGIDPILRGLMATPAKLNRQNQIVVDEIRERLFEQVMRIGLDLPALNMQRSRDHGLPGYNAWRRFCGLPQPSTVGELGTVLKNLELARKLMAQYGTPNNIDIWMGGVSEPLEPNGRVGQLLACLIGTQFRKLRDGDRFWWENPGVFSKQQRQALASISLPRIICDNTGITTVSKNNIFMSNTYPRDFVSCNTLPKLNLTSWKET
Briefly: Myeloperoxidase (MPO) activity assay in SCF/2i GMP-derived granulocytes and blood neutrophils. It counts as cell-based. As to conditions: 100 nM for 2 hours.

In the next assay the test system is SCF/2i GMPs. Briefly: In vitro differentiation of SCF/2i GMPs, flow cytometry. It counts as cell-based, mouse. The procedure:
(A) Immunofluorescence and flow cytometry analysis of CD11b and F4/80 expression in cells differentiated from SCF/2i GMPs after treatment with M-CSF for 7 days. Flow cytometry data are represented as mean±SD from three independent experiments. (B) ELISA analysis of cytokine secretion in bone marrow (BM) and SCF/2i GMP-derived macrophages stimulated with 500 ng/ml LPS for 6 hours. Data are represented as mean±SD from three independent experiments. (C) Phagocytosis analysis of SCF/2i GMP-derived macrophages by incubating with FITC-labeled latex beads for 1 hour. Upper panel, a representative fluorescent image (green, FITC-labeled beads; blue, macrophage cell nuclei). Lower panel, flow cytometry analysis of SCF/2i GMP-derived macrophages incubated with (red) or without (blue) FITC-labeled latex beads. Flow cytometry data are represented as mean±SD from three independent experiments. (D) Time-lapse images of tdTomato-positive SCF/2i GMP-derived macrophages incubated with GFP labeled E. coli. The numbers on the images indicate the times in minutes. Arrows and arrowheads indicate the bacteria engulfed by macrophages. (E) Giemsa staining (upper panel) and flow cytometry analysis (lower panel) of SCF/2i GMPs treated with PBS or G-CSF for 3 days. Flow cytometry data are represented as mean±SD (n=5). […] A total of 192×3 wells from three independent experiments were counted for each group. […]
In general terms: In flow cytometry, cells or beads pass a laser one at a time.

Description for myeloperoxidase (MPO): (F) ELISA analysis of cytokine secretion and MPO activity measurement in the indicated cells stimulated with 500 ng/ml LPS for 6 hours (for ELISA assay) or 100 nM PMA for 2 hours (for MPO assay). Data are represented as mean±SD from three independent experiments. Ctrl, no treatment control; ns, not significant.
Myeloperoxidase (MPO) assay. SCF/2i GMPs, blood neutrophils and SCF/2i GMP-derived granulocytes were plated into 96-well plates at a density of 2×10^4 cells/well and cultured in 100 μl RPMI 1640 medium supplemented with 10% FBS. […] The supernatants were harvested and MPO activities were measured using the neutrophil MPO activity assay kit (Cayman, 600620) according to the manufacturer's instructions.

As to `Cc1cccc(-c2nn(C(=S)Nc3ccccc3)cc2-c2ccnc3ccccc23)n1` [A-8301], in assay [1], the “formation of colonies with uniform cell morphology” value is listed as “clusters of colonies were observed being formed”.

For `Cc1c[nH]c(-c2cnc(NCCNc3ccc(C#N)cn3)nc2-c2ccc(Cl)cc2Cl)n1` [CHIR99021], the “ability to mimic the effect of SKL2001 for the expansion of mouse GMPs” value (“ability to mimic the effect of SKL2001” for short) in the assay with mouse GMPs is on record as “could not mimic the effect of SKL2001”.

`Cc1cc([N+](=O)[O-])ccc1NS(=O)(=O)c1cc(Cl)ccc1Cl` [FH535]: in the assay with mouse GMPs, the “effect on expansion of mouse GMPs in SCF/2i” value was “not affected”.

In the case of `O=C(Nc1cccc2cccnc12)c1ccc(N2C(=O)[C@@H]3[C@H](C2=O)[C@@H]2C=C[C@H]3C2)cc1` [IWR1], the “effect on expansion of mouse GMPs in SCF/2i” value in the assay with mouse GMPs is given as “not affected”. The “formation of colonies with uniform cell morphology” value in assay [1] is “clusters of colonies were observed being formed”.

For the molecule `CCCCCCCCCCCCCC(=O)O[C@@H]1[C@@H](C)[C@@]2(O)[C@@H](C=C(CO)C[C@]3(O)C(=O)C(C)=C[C@@H]23)[C@@H]2C(C)(C)[C@]12OC(C)=O` [PMA, phorbol myristate acetate], the “MPO activity upon activation” value at myeloperoxidase (MPO) is listed as “significantly increased”.

In the case of `C[S+]([O-])c1ccc(-c2nc(-c3ccncc3)c(-c3ccc(F)cc3)[nH]2)cc1` (centres unmarked) [SB203580], the “formation of colonies with uniform cell morphology” value in assay [1] was “clusters of colonies were observed being formed”.

As to `COc1cccc(-c2cc(NCc3ccc4c(c3)OCO4)nc(N)n2)c1` [Wnt agonist 1], the “ability to mimic the effect of SKL2001” value with mouse GMPs is reported as “could not mimic the effect of SKL2001”.

Consider Wnt3a, for which the “ability to mimic the effect of SKL2001” value in the assay with mouse GMPs is listed as “could not mimic the effect of SKL2001”.

B1: G-CSF: granulocyte colony stimulating factor (protein, UniProt P09919 31-207, looked up)
Granulocyte …: TPLGPASSLPQSFLLKCLEQVRKIQGDGAALQEKLVSECATYKLCHPEELVLLGHSLGIPWAPLSSCPSQALQLAGCLSQLHSGLFLYQGLLQALEGISPELGPTLDTLQLDVADFATTIWQQMEELGMAPALQPTQGAMPAFASAFQRRAGGVLVASHLQSFLEVSYRVLRHLAQP
With B1, in the assay on SCF/2i GMPs (SCF/2i GMPs treated for 3 days), the “cells Ly6G+CD115−” value is given as “more than 80%”.

B2: M-CSF: macrophage differentiation factor (protein, UniProt P09603 33-554, looked up)
Macrophage colony-stimulating …: EEVSEYCSHMIGSGHLQSLQRLIDSQMETSCQITFEFVDQEQLKDPVCYLKKAFLLVQDIMEDTMRFRDNTPNAIAIVQLQELSLRLKSCFTKDYEEHDKACVRTFYETPLQLLEKVKNVFNETKNLLDKDWNIFSKNCNNSFAECSSQDVVTKPDCNCLYPKAIPSSDPASVSPHQPLAPSMAPVAGLTWEDSEGTEGSSLLPGEQPLHTVDPGSAKQRPPRSTCQSFEPPETPVVKDSTIGGSPQPRPSVGAFNPGMEDILDSAMGTNWVPEEASGEASEIPVPQGTELSPSRPGGGSMQTEPARPSNFLSASSPLPASAKGQQPADVTGTALPRVGPVRPTGQDWNHTPQKTDHPSALLRDPPEPGSPRISSLRPQGLSNPSTLSAQPQLSRSHSSGSVLPLGELEGRRSTRDRRSPAEPEGGPASEGAARPLPRFNSVPLTDTGHERQSEGSFSPQLQESVFHLLVPSVILVLLAVGGLLFYRWRRRSHQEPQRADSPLEQPEGSPLTQDDRQVELPV
Consider B2, for which the “cells positive for both F4/80 and CD11b” value in the assay on SCF/2i GMPs (SCF/2i GMPs treated for 7 days) is given as “more than 99%”.

Values taken from US20240294876A1, “METHODS FOR THE EXPANSION OF HUMAN GRANULOCYTE-MACROPHAGE PROGENITORS AND APPLICATIONS THEREOF” (University of Southern California, priority 2021, published 2024).
